In US10669268B2, “Bicyclic derivatives” (Hoffmann-La Roche Inc., priority 2012, dated 2020):

Target: ATX (human His-tagged) (Homo sapiens (Human), UniProt Q13822)
Assay: Human ATX enzyme inhibition assay (fluorescence quenching, MR121 substrate)
Assay type: biochemical
Details: 30 nM ATX, 1 μM MR121 substrate, 30° C., pH 8.0
Procedure, shortened: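 Fluorescence-quenching assay using MR121 substrate at 1 μM final, incubated 15 min at 30 °C. Buffer was 50 mM Tris-HCl pH 8.0 with 140 mM NaCl, 5 mM KCl, 1 mM CaCl2, 1 mM MgCl2 and 0.01% Triton X-100.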

| SMILES | IC50 |
| --- | --- |
| O=C(OCc1ccc(OC(F)(F)F)c(F)c1)N1C[C@@H]2CN(C(=O)c3ccc4[nH]nnc4n3)C[C@H]2C1 [Example 4.40, (3aS,6aS)-5-(1H-[1,2,3]triazolo[4,5-b]pyridine-5-carbonyl)-hexahydro-pyrrolo[3,4-c]pyrrole-2-carboxylic acid 3-fluoro-4-trifluoromethoxy-benzyl ester] | 16 nM |
| O=C(OCc1cc(Cl)cc(Cl)c1)N1C[C@@H]2CN(C(=O)N3CCc4[nH]nnc4C3)C[C@@H]2C1 [Example 8, (3aR,6aS)-3,5-dichlorobenzyl 5-(4,5,6,7-tetrahydro-1H-[1,2,3]triazolo[4,5-c]pyridine-5-carbonyl)hexahydropyrrolo[3,4-c]pyrrole-2(1H)-carboxylate] | 108 nM |
| O=C(COc1ccc(C(F)(F)F)cc1Cl)N1CC[C@@H]2CN(C(=O)c3ccc4[nH]nnc4c3)C[C@@H]2CC1 [Example 1.38, 1-((3aR,8aS)-2-(1H-benzo[d][1,2,3]triazole-5-carbonyl)octahydropyrrolo[3,4-d]azepin-6(7H)-yl)-2-(2-chloro-4-(trifluoromethyl)phenoxy)ethanone] | 10 nM |
| O=C(OCc1cc(F)cc(OC(F)(F)F)c1)N1C[C@@H]2CN(C(=O)c3ccc4[nH]nnc4c3)C[C@@H]2C1 [Example 4.23, (3aS,6aR)-5-(1H-benzotriazole-5-carbonyl)-hexahydro-pyrrolo[3,4-c]pyrrole-2-carboxylic acid 3-fluoro-5-trifluoromethoxy-benzyl ester] | 17 nM |
| CC(C)c1cc(C#N)ccc1COC(=O)N1C[C@@H]2CN(C(=O)[C@@H]3CCc4[nH]nnc4C3)C[C@H]2C1 [Example 4.46, (3aS,6aS)-5-((R)-4,5,6,7-tetrahydro-1H-benzotriazole-5-carbonyl)-hexahydro-pyrrolo[3,4-c]pyrrole-2-carboxylic acid 4-cyano-2-isopropyl-benzyl ester] | 5 nM |
| CCOc1cc(C(=O)N2C[C@@H]3CN(C(=O)[C@@H]4CCc5[nH]nnc5C4)C[C@H]3C2)nc2ccccc12 [Example 1.60, (4-ethoxyquinolin-2-yl)((3aS,6aS)-5-((R)-4,5,6,7-tetrahydro-1H-benzo[d][1,2,3]triazole-5-carbonyl)hexahydropyrrolo[3,4-c]pyrrol-2(1H)-yl)methanone] | 12 nM |
| COc1ccc(OCC(=O)N2CC[C@@H]3CN(C(=O)c4ccc5[nH]nnc5c4)C[C@@H]3CC2)c(C(C)(C)C)c1 [Example 1.42, 1-[(3aS,8aR)-2-(1H-benzotriazole-5-carbonyl)-1,3,3a,4,5,7,8,8a-octahydropyrrolo[3,4-d]azepin-6-yl]-2-(2-tert-butyl-4-methoxyphenoxy)ethanone] | 7 nM |
| O=C(OCc1ccc(C(F)(F)F)cc1)N1C[C@@H]2CN(C(=O)c3ccc4[nH]nnc4c3)C[C@H]2C1 [Example 4.57, (3aS,6aS)-5-(1H-benzotriazole-5-carbonyl)-hexahydro-pyrrolo[3,4-c]pyrrole-2-carboxylic acid 4-trifluoromethyl-benzyl ester] | 11 nM |
| O=C(/C=C/c1ccc(OC(F)(F)F)cc1)N1CC[C@@H]2CN(C(=O)[C@H]3CCc4[nH]nnc4C3)C[C@@H]2CC1 [Example 1.20, (E)-1-[(3aS,8aR)-2-((S)-4,5,6,7-tetrahydro-1H-benzotriazole-5-carbonyl)-octahydro-pyrrolo[3,4-d]azepin-6-yl]-3-(4-trifluoromethoxy-phenyl)-prop-2-en-1-one] | 83 nM |
| O=C(OCc1cc(F)cc(C(F)(F)F)c1)N1C[C@@H]2CN(C(=O)c3ccc4[nH]nnc4c3)C[C@@H]2C1 [Example 4.26, (3aS,6aR)-5-(1H-benzotriazole-5-carbonyl)-hexahydro-pyrrolo[3,4-c]pyrrole-2-carboxylic acid 3-fluoro-5-trifluoromethyl-benzyl ester] | 51 nM |
| O=C(/C=C/c1ccc(OC(F)(F)F)cc1)N1CC[C@@H]2CN(C(=O)c3ccc4nonc4c3)C[C@@H]2CC1 [Example 1.17, (E)-1-[(3aS,8aR)-2-(benzo[c][1,2,5]oxadiazole-5-carbonyl)-octahydro-pyrrolo[3,4-d]azepin-6-yl]-3-(4-trifluoromethoxy-phenyl)-prop-2-en-1-one] | 651 nM |
| O=C(c1ccc2[nH]nnc2c1)N1CC[C@@H]2CN(c3nnc(-c4ccc(Cl)cc4)o3)C[C@H]2C1 (relative stereo) [Example 14, (1H-Benzotriazol-5-yl)-{trans-2-[5-(4-chloro-phenyl)-[1,3,4]oxadiazol-2-yl]-octahydro-pyrrolo[3,4-c]pyridin-5-yl}-methanone] | 926 nM |
| O=C(/C=C/c1ccc(OC(F)(F)F)cc1)N1C[C@@H]2CN(C(=O)c3ccc4[nH]nnc4c3)C[C@@H]2C1 [Example 15, (E)-1-((3aR,6aS)-5-(1H-Benzo[d][1,2,3]triazole-5-carbonyl)hexahydropyrrolo[3,4-c]pyrrol-2(1H)-yl)-3-(4-(trifluoromethoxy)phenyl)prop-2-en-1-one] | 26 nM |
| O=C(COc1ccccc1OC(F)(F)F)N1CC[C@@H]2CN(C(=O)c3ccc4[nH]nnc4c3)C[C@@H]2CC1 [Example 1.32, 1-[(3aS,8aR)-2-(1H-benzotriazole-5-carbonyl)-octahydro-pyrrolo[3,4-d]azepin-6-yl]-2-(2-trifluoromethoxy-phenoxy)-ethanone] | 40 nM |

Results, then the compound that gave them:

| IC50 | SMILES |
| --- | --- |
| 47 nM | O=C(CCc1ccc(OC(F)(F)F)cc1)N1CC[C@@H]2CN(C(=O)c3ccc4[nH]nnc4c3)C[C@H]2C1 (relative stereo) [Example 17.15, 1-[trans-2-(1H-benzotriazole-5-carbonyl)-octahydro-pyrrolo[3,4-c]pyridin-5-yl]-3-(4-trifluoromethoxy-phenyl)-propan-1-one] |
| 53 nM | O=C(/C=C/c1cccc(OC(F)(F)F)c1)N1C[C@@H]2CN(C(=O)c3ccc4[nH]nnc4c3)C[C@H]2C1 [Example 15.22] |
| 12 nM | O=C(CCc1ccccc1C1CC1)N1CC[C@@H]2CN(C(=O)c3ccc4[nH]nnc4c3)C[C@@H]2CC1 [Example 17.19, 1-((3aR,8aS)-2-(1H-benzo[d][1,2,3]triazole-5-carbonyl)octahydropyrrolo[3,4-d]azepin-6(7H)-yl)-3-(2-cyclopropylphenyl)propan-1-one] |
| 14 nM | O=C(/C=C/c1ccc(Cl)cc1Cl)N1CC[C@@H]2CN(C(=O)c3ccc4[nH]nnc4c3)C[C@@H]2CC1 [Example 15.30] |
| 305 nM | O=C(c1ccc2[nH]nnc2c1)N1C[C@H]2CN(C(=O)N3CCN(c4ccc(Cl)cc4)CC3)C[C@@H]2C1 [Example 20.01, (1H-benzotriazol-5-yl)-{(3aS,6aS)-5-[4-(4-chloro-phenyl)-piperazine-1-carbonyl]-hexahydro-pyrrolo[3,4-c]pyrrol-2-yl}-methanone] |
| 3400 nM | CC(C)(Cc1cccc(Cl)c1)C(=O)N1CC[C@@H]2CN(C(=O)NCc3cnn[nH]3)C[C@@H]2CC1 [Example 9.08] |
| 42 nM | COc1ccc(/C=C/C(=O)N2CC[C@@H]3CN(C(=O)c4ccc5[nH]nnc5c4)C[C@@H]3CC2)cc1 [Example 15.09] |
| 38 nM | O=C(/C=C/c1ccc(OC(F)(F)F)cc1)N1CC[C@@H]2CN(C(=O)NCc3cnn[nH]3)C[C@@H]2CC1 [Example 9.01] |
| 15 nM | CCOc1cc(C(=O)N2C[C@@H]3CN(C(=O)c4ccc5[nH]nnc5c4)C[C@H]3C2)nc2ccccc12 [Example 19.37, ((3aS,6aS)-5-(1H-benzo[d][1,2,3]triazole-5-carbonyl)hexahydropyrrolo[3,4-c]pyrrol-2(1H)-yl)(4-ethoxyquinolin-2-yl)methanone] |
| 60 nM | O=C(/C=C/c1ccc(-c2cccnc2)cc1)N1C[C@@H]2CN(C(=O)c3ccc4[nH]nnc4c3)C[C@H]2C1 [Example 15.80, (E)-1-[(3aR,6aR)-5-(1H-benzotriazole-5-carbonyl)-hexahydro-pyrrolo[3,4-c]pyrrol-2-yl]-3-(4-pyridin-3-yl-phenyl)-prop-2-en-1-one] |
| 3 nM | O=C(CCc1ccc(-c2ccccc2)cc1)N1C[C@@H]2CN(C(=O)c3ccc4[nH]nnc4c3)C[C@H]2C1 [Example 15.65] |
| 655 nM | O=C(/C=C/c1ccccc1)N1C[C@@H]2CN(C(=O)c3ccc4[nH]nnc4c3)C[C@H]2C1 [Example 15.56] |
| 5 nM | O=C(c1ccc2[nH]nnc2c1)N1C[C@H]2CN(C(=O)c3cc(OCC(F)(F)F)c4ccccc4n3)C[C@@H]2C1 [Example 19.38, ((3aS,6aS)-5-(1H-benzo[d][1,2,3]triazole-5-carbonyl)hexahydropyrrolo[3,4-c]pyrrol-2(1H)-yl)(4-(2,2,2-trifluoroethoxy)quinolin-2-yl)methanone] |
| 7 nM | O=C(/C=C/N1C[C@@H]2CN(C(=O)[C@@H]3CCc4[nH]nnc4C3)C[C@H]2C1)c1ccc(OC(F)(F)F)cc1 [Example 15.89] |
| 6 nM | O=C(CCc1ccc(F)cc1C(F)(F)F)N1CC[C@@H]2CN(C(=O)c3ccc4[nH]nnc4c3)C[C@@H]2CC1 [Example 17.05, 1-((3aR,8aS)-2-(1H-benzo[d][1,2,3]triazole-5-carbonyl)octahydropyrrolo[3,4-d]azepin-6(7H)-yl)-3-(4-fluoro-2-(trifluoromethyl)phenyl)propan-1-one] |
| 18 nM | CS(=O)(=O)c1cc(Cl)cc(/C=C/C(=O)N2C[C@@H]3CN(C(=O)c4ccc5[nH]nnc5c4)C[C@H]3C2)c1 [Example 15.46] |
| 31 nM | O=C(CCc1ccc(-c2ccccn2)cc1)N1C[C@@H]2CN(C(=O)c3ccc4[nH]nnc4c3)C[C@H]2C1 [Example 17.13, 1-[(3aR,6aR)-5-(1H-benzotriazole-5-carbonyl)-hexahydro-pyrrolo[3,4-c]pyrrol-2-yl]-3-(4-pyridin-2-yl-phenyl)-propan-1-one] |
| 1360 nM | O=C(COc1cccc(OC(F)(F)F)c1)N1C[C@@H]2CN(C(=O)c3ccc4[nH]nnc4c3)C[C@@H]2C1 [Example 15.71] |
| 20 nM | O=C(/C=C/c1cccc(Cl)c1)N1CC[C@@H]2CN(C(=O)c3ccc4[nH]nnc4c3)C[C@@H]2CC1 [Example 15.18] |
